This is an account of results in patent US9724351B2, “Compounds for the treatment of paramoxyvirus viral infections” (priority 2012, dated 2017).

Data set [1] can be described thus: Cytotoxicity Determination. The settings on record: human, HEp-2 cells, without addition of virus, CCK-8 readout, bins (Table 4: greater than 100 μM; Table 5: equal to or less than 100 μM and greater than 10 μM), read-out: 50% cytotoxicity concentration (CC50). Type of data set: cell-based. The method, boiled down:
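Uninfected cells were exposed to compounds in duplicate over a 7-point ½ dilution series starting at 100 μM final, for 5 days at 37 °C, 5% CO2. CCK-8 was then added for 3-4 h, and CC50 was calculated from optical density.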

Data set [2] relates to Respiratory Syncytial Virus (RSV) long strain (ATCC#VR-26). Put plainly: RSV Antiviral Assay (CPE reduction assay). The settings on record: human respiratory syncytial virus, 120 h; HEp-2 cells infected with RSV long strain, 5 days, CCK-8 readout; bins (Table 2: less than 1 μM; Table 3: equal to or higher than 1 μM and less than 50 μM); read-out: 50% effective concentration (EC50). Type of data set: cell-based. A digest of the protocol: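 HEp-2 cells infected with 100 TCID50 RSV long strain per well, compounds from 100 μM or 1 μM in 9-point ⅓ dilutions, duplicates, 1% DMSO. After 5 days at 37 °C, viable cells measured by CCK-8 (A450, 630 nm background); EC50 by regression on mean O.D.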

As for `COc1ccc(C(=O)NCC(=O)c2cc(CC(C)C)cc(-c3csc4c(F)cccc34)n2)cc1OC` [Compound 1239], in data set [1], the CC50 at 5 days was more than 100 µM. The EC50 in data set [2] is 1 to 50 µM.

For the molecule `COc1cc(C(=O)NCC(=O)c2c[nH]c(-c3csc4c(F)cccc34)n2)ccc1OCCO` [Compound 1240], the CC50 at 5 days in data set [1] is more than 100 µM. For the same molecule, the EC50 in data set [2] is 1 to 50 µM.

For `COc1cc(C(=O)NCC(=O)c2cccc(-c3csc4c(F)cccc34)n2)ccc1OCc1nc[nH]n1` [Compound 1242], the CC50 at 5 days in data set [1] lay in the range of 10 to 100 µM. Besides, in data set [2], the EC50 fell in the range of 1 to 50 µM.

Consider `C/C=C\c1cc(C(=O)CNC(=O)c2ccc(OC)c(OC)c2)nc(-c2csc3c(F)cccc23)c1` [Compound 1243], for which the CC50 at 5 days in data set [1] is more than 100 µM. Moreover, in data set [2], the EC50 fell in the range of 1 to 50 µM.

As to `CCCc1cc(C(=O)CNC(=O)c2ccc(OC)c(OC)c2)nc(-c2csc3c(F)cccc23)c1` [Compound 1244], in data set [1], the CC50 at 5 days lay in the range of 10 to 100 µM. In addition, the EC50 in data set [2] was less than 1 µM.

Regarding `COc1cc(C(=O)NCC(=O)c2cc(N(C)C)cc(-c3csc4c(F)cccc34)n2)ccc1OCCO` [Compound 1245], the CC50 at 5 days in data set [1] was more than 100 µM. Also, in data set [2], the EC50 is less than 1 µM.

Take `COc1cc(C(=O)NCC(=O)c2cccc(-c3csc4c(F)cccc34)n2)ccc1OCCn1ccnc1` [Compound 1246]: in data set [1], the CC50 at 5 days was in the range of 10 to 100 µM. For the same molecule, the EC50 in data set [2] lay within 1 to 50 µM.

As for `COc1cc(C(=O)NCC(=O)c2cccc(-c3csc4c(F)cccc34)n2)ccc1OCC(N)=O` [Compound 1247], the CC50 at 5 days in data set [1] fell in the range of 10 to 100 µM. The EC50 in data set [2] was less than 1 µM.

As for `COc1cc(C(=O)NCC(=O)c2cccc(-c3csc4c(F)cccc34)n2)ccc1OCC(=O)O` [Compound 1248], the CC50 at 5 days in data set [1] lay within 10 to 100 µM. In addition, the EC50 in data set [2] fell in the range of 1 to 50 µM.

Take `COc1ccc(C(=O)NCC(=O)c2cc(C3CC3)cc(-c3csc4c(F)cccc34)n2)cc1OC` [Compound 1249]: the CC50 at 5 days in data set [1] is more than 100 µM. The EC50 in data set [2] lay within 1 to 50 µM.

For the molecule `CCc1cc(C(=O)CNC(=O)c2ccc(OCCO)c(OC)c2)nc(-c2csc3c(F)cccc23)c1` [Compound 1250], the CC50 at 5 days in data set [1] is more than 100 µM. Further, in data set [2], the EC50 was less than 1 µM.

Take `COc1cc(C(=O)NCC(=O)c2cccc(-c3csc4c(F)cccc34)n2)ccc1OC1CNC1` [Compound 1251]: in data set [1], the CC50 at 5 days was more than 100 µM. Moreover, the EC50 in data set [2] was 1 to 50 µM.

On to `COc1ccc(C(=O)NCC(=O)c2cc(C(C)(C)C)cc(-c3csc4c(F)cccc34)n2)cc1OC` [Compound 1252], for which the CC50 at 5 days in data set [1] was more than 100 µM. Also, the EC50 in data set [2] is less than 1 µM.

For the molecule `CNc1ccc(C(=O)CNC(=O)c2ccc(OCCO)c(OC)c2)nc1-c1csc2c(F)cccc12` [Compound 1253], the CC50 at 5 days in data set [1] was more than 100 µM. Also, the EC50 in data set [2] was less than 1 µM.

With `COc1cc(C(=O)NCC(=O)c2cc(CO)cc(-c3csc4c(F)cccc34)n2)ccc1OCCO` [Compound 1255], the CC50 at 5 days in data set [1] lay in the range of 10 to 100 µM. Moreover, in data set [2], the EC50 was less than 1 µM.

Regarding `COc1cc(C(=O)NCC(=O)c2cccc(-c3csc4c(F)cccc34)n2)ccc1OC1CC(O)C1` (stereo not drawn) [Compound 1256], the CC50 at 5 days in data set [1] lay in the range of 10 to 100 µM. In data set [2], the EC50 was less than 1 µM.

Consider `COC(=O)c1cc(C(=O)CNC(=O)c2ccc(OCCO)c(OC)c2)nc(-c2csc3c(F)cccc23)c1` [Compound 1257], for which the CC50 at 5 days in data set [1] was more than 100 µM. For the same molecule, the EC50 in data set [2] is 1 to 50 µM.

Regarding `COc1cc(C(=O)NCC(=O)c2cc(C(=O)O)cc(-c3csc4c(F)cccc34)n2)ccc1OCCO` [Compound 1258], the CC50 at 5 days in data set [1] is more than 100 µM. In addition, in data set [2], the EC50 was in the range of 1 to 50 µM.

`COc1ccc(C(=O)CNC(=O)c2ccc(OCCO)cc2)nc1-c1ccc(F)c(Cl)c1` [Compound 1308]: the CC50 at 5 days in data set [1] was more than 100 µM. Besides, the EC50 in data set [2] is 1 to 50 µM.

As to `COc1ccc(C(=O)CNC(=O)c2ccc(OCCO)c(C)c2)nc1-c1ccc(F)c(Cl)c1` [Compound 1309], the CC50 at 5 days in data set [1] was more than 100 µM. Also, the EC50 in data set [2] was less than 1 µM.

Turning to `COCCOc1ccc(C(=O)NCC(=O)c2ccc(OC)c(-c3ccc(F)c(Cl)c3)n2)cc1` [Compound 1311], the CC50 at 5 days in data set [1] is more than 100 µM. For the same molecule, the EC50 in data set [2] was 1 to 50 µM.
